Measured values reported in patent US7132540B1, “Hindered spiro-ketal nitroxides” (Nova Molecular Technologies Inc., priority 2001, dated 2006).

Columns and labels:
[1] = Polymerization of methyl acrylate at 70° C. with benzoyl peroxide in the presence of nitroxide inhibitors; details: methyl acrylate 10 ml, benzoyl peroxide 0.35 g, inhibitor 0.1 g (0.1 ml for 6), water bath 70° C.
Method: (§1) Testing was done to determine the effectiveness of various nitroxides in inhibiting the polymerization of various vinyl monomers.
(§2) A sample of vinyl monomer (10 ml) was placed in an open 25 ml test tube. To each tube benzoyl peroxide (0.35 g) and 0.1 g of nitroxide inhibitor was added, then the tubes were placed in a water bath maintained by a thermostat at 70° C. The selected vinyl monomers polymerize under these conditions without nitroxide inhibitors within a few minutes.
(§3) Vinyl monomers: acrylonitrile, vinyl acetate and methyl acrylate.
Polymerization of Methyl Acrylate at 70° C. in the presence of Nitroxide Inhibitors.

[2] = Polymerization of acrylonitrile at 70° C. with benzoyl peroxide in the presence of nitroxide inhibitors; details: acrylonitrile 10 ml, benzoyl peroxide 0.35 g, inhibitor 0.1 g (0.1 ml for 6), water bath 70° C.
Method: as §1, §2, §3
Polymerization of Acrylonitrile at 70° C. in the presence of Nitroxide Inhibitors.

[3] = Polymerization of vinyl acetate at 70° C. with benzoyl peroxide in the presence of nitroxide inhibitors; details: vinyl acetate 10 ml, benzoyl peroxide 0.35 g, inhibitor 0.1 g (0.1 ml for 6), water bath 70° C.
Method: as §1, §2, §3
Polymerization of Vinyl Acetate at 70° C. in the presence of Nitroxide Inhibitors.

Row | Structure (SMILES) | Inhibition Time [1] [min] | Inhibition Time [2] [min] | Inhibition Time [3] [min]
1 | CC1(C)CC2(CC(C)(C)N1[O])OCCCO2 [Example 1, 1,5-dioxa-9-aza-8,8,10,10-tetramethylspiro[5,5]undec-9-yloxy] | 165 | 40 | 205
2 | CC1(C)CC2(CC(C)(C)N1[O])OCCCO2 [Example 2, 1,5-dioxa-9-aza-8,8,10,10 tetramethylspiro[5,5]undec-9-yloxy] | 166 | 60 | 145
3 | COC1CC(C)(C)N(O)C(C)(C)C1 [Inhibitor 3] | >300 | 305 | >300
4 | CC1(C)CCCC(C)(C)N1O [Inhibitor 5] | 180 | 60 | 385
